Results from US20160045463A1, “USE OF METALLOPROTEASE INHIBITORS IN THE TREATMENT OF POLYCYSTIC LIVER DISEASES” (UNIVERSIDAD DE SALAMANCA, priority 2012, published 2016).

Key:
[1] = in vivo; cited from earlier work
[2] = tested on: normal human cholangiocytes; assay: Metalloproteolytic activity of culture supernatants, ES001 fluorogenic peptide cleavage; type: cell-based; conditions: for metalloproteolytic activity in presence of stimulus: normal cholangiocytes vs basal, Table 3 final concentration: IL-6, IL-8 50 ng/ml, 17β-estradiol 1 nM/ml, VEGF, EGF, ENA-78, GRO-α 10 ng/ml, HGF 20 ng/ml, FIG. 9
Method: (§1) Metalloproteolytic or metalloprotease activity was measured in supernatants of cultures of normal human cholangiocytes and polycystic human cholangiocytes by an assay based on the cleavage of the ES001 fluorogenic synthetic peptide (R&D Systems Minneapolis, Minn., USA) that emits fluorescence proportional to metalloproteolytic activity. The substrate Mca-Pro-Leu-Gly-Leu-Dpa-Ala-Arg-NH2 [Mca: (7-Methoxycoumarin-4-yl)acetyl, Dpa: N-3-(2,4-Dinitrophenyl)-L-2,3-diaminopropionyl] (Knight C G, et al. FEBS Letters 1992; 296:263) is lysed between glycine and leucine by the action of the MMPs, especially MMP-1 (collagenase 1), MMP-2 (gelatinase A), MMP-7 (matrilysin), MMP-8 (collagenase 2), MMP-9 (gelatinase B), MMP-12 (macrophage elastase), MMP-13 (collagenase 3), MMP-14 (MT1-MMP), MMP-15 (MT2-MMP) and MMP-16 (MT3-MMP).
(§2) The basal metalloproteolytic activity of normal human cholangiocyte and polycystic human cholangiocytes cultures was determined by trypsinising the contents of 250 ml flasks and counting the number of cells in an inverted optical microscope using a Neubauer camera and a ½ dilution of the cell solution with trypan blue (Sigma). Next, 300,000 cells were seeded in each well of a 6-well plate and incubated with enriched DMEM/F-12 medium for 24 hours. After this time, the cells were washed with PBS and the culture medium changed for 2 ml of quiescent medium (DMEM/F-12, 1% FBS and 1% P/S) and incubated for 6 hours at 37° C./5% CO2. The supernatant was collected from each well and centrifuged at 4° C. for 10 minutes at 1,500 rpm to remove the dead cells present in the supernatant. The supernatant was concentrated 50 times using a 15 kDa (Millipore) Amicon Ultra concentrator. Next the concentrated supernatant was incubated for 2 hours at 37° C. with the ES001 fluorogenic peptide at a final concentration of 10 μM. Also, GM6001 (a global MMP inhibitor) and aprotinin (a global inhibitor of serine proteases) (both from Sigma-Aldrich) were used as controls of the specificity of the analysis of MMP activity in the assay. Recombinant MMP-10 (kindly provided by Dr. José Antonio Rodriguez Garcia, Laboratorio de Ateroesclerosis e Inflamación del CIMA, Universidad de Navarra) was used as a positive control and DMEM/F-12 medium without serum was used as the negative control. The fluorescence determination was kinetically measured in a Spectra MAX GeminiXS (Molecular Devices Sunnyvale, Calif., USA) spectrophotometer at excitation-emission wavelengths of 320-405 nm. The fluorescence intensity emitted by the culture medium was extracted from the metalloproteolytic activity values. The metalloproteolytic activity was calculated from the tangent to the curve of the fluorescence values using at least six different points over time for each type of cell and condition.
(§3) To analyse the effect of various stimuli on the metalloproteolytic activity of normal and polycystic human cholangiocytes cultures, a protocol similar to that described before in Example 2 was followed, but in this case the incubation of the cells was with quiescent medium (i.e. DMEM/F12, […]) in the presence of the corresponding stimulus (Table 3). Next, the same procedure as described for the analysis of basal metalloproteolytic activity was followed as described in Example 2.
(§4) Taking into account that: i) basal activity of polycystic human cholangiocytes in culture is greater than that of normal human cholangiocytes and ii) that IL-6 and IL-8 increased the metalloproteolytic activity of normal and polycystic human cholangiocytes, the role of these two cytokines on metalloproteolytic hyperactivity of polycystic human cholangiocytes using antibodies against the receptors of IL-6 (IL6R) and/or IL-8 (CXCR1) was investigated. […]

[3] = tested on: polycystic human cholangiocytes; assay: as above; type: cell-based; conditions: for metalloproteolytic activity in presence of stimulus: polycystic cholangiocytes vs basal, Table 3 final concentration: IL-6, IL-8 50 ng/ml, 17β-estradiol 1 nM/ml, VEGF, EGF, ENA-78, GRO-α 10 ng/ml, HGF 20 ng/ml, FIG. 9
Method: as §1, §2, §3, §4

[4] = tested on: normal human cholangiocytes; assay: MMP mRNA expression by quantitative PCR in the presence of IL-6, IL-8 or 17β-estradiol; type: cell-based; conditions: for expression of MMP-2 (mRNA): FIG. 10; for expression of MMP-3 (mRNA): FIG. 11; for expression of MMP-7 (mRNA): FIG. 12; for expression of MMP-10 (mRNA): FIG. 13; for expression of MMP-11 (mRNA): FIG. 14; for expression of MMP-13 (mRNA): FIG. 15; for expression of MMP-15 (mRNA): FIG. 16; for expression of MMP-17 (mRNA): FIG. 17; for expression of MMP-27 (mRNA): FIG. 18
Method: (§5) To determine if the metalloproteolytic hyperactivity of polycystic human cholangiocytes is associated with changes in the pattern of expression of MMPs and their natural inhibitors, TIMPs, at the level of mRNA, this was analysed by quantitative PCR (i.e. qPCR) using the cDNA previously obtained as explained in Example 1, the gene expression of a total of 22 genes, including those containing the members of the metalloprotease family: MMP-1, MMP-2, MMP-3, MMP-7, MMP-8, MMP-9, MMP-10, MMP-11, MMP-13, MMP-14, MMP-15, MMP-16, MMP-17, MMP-18, MMP-24, MMP-25, MMP-26, MMP-27 and their natural inhibitors: TIMP-1, TIMP-2, TIMP-3, TIMP-4. Briefly, 4 μl of the cDNA were taken and 1.8 μl of a 10 μM solution of each primer (final concentration 0.9 μM) and 10 μl of FastSYBR® Green (Applied Biosystems) were added, adding sterile water (Braun) to reach a final volume of 20 μl. The amplification reactions were performed in a StepOne Plus (Applied Biosystems) thermo cycler following the standard protocol conditions for FastSYBR Green®.
(§6) The relative estimate of the mRNA levels of the genes of Table 2 were calculated from the PCR progression curve (fluorescence vs. cycle), where the cycle threshold or Ct was determined from when the fluorescence signal begins to increase exponentially. Thus to calculate the difference of relative expression of the normal and polycystic human cholangiocytes, the data obtained were analysed following the modified method of Livak and Schmittgen (Livak K J, et al. Methods 2001; 25:402), according to the following equation:
(§7) Relative values=1.8^(polycystic or normal cholangiocyte GAPDH−polycystic or normal cholangiocyte GEN)
(§8) Where the superscripts “GAPDH polycystic or normal cholangiocytes” and “Gene polycystic or normal cholangiocytes” correspond to the Ct for GAPDH and for each studied gene. The value of 1.8 (in place of 2) was used because it is assumed that the real efficiency of each amplification cycle is around 80% instead of 100%.
as §3
(§9) Taking into account the increase in metalloproteolytic activity induced by interleukins 6 and 8 and also the oestrogen 17β-estradiol in human cholangiocytes in culture, this was further investigated to determine if the increase in activity was correlated with an increase in gene expression at the level of mRNA of the various MMPs.

[5] = tested on: polycystic human cholangiocytes; assay: as above; type: cell-based; conditions: for expression of MMP-2 (mRNA): FIG. 10; for expression of MMP-3 (mRNA): FIG. 11; for expression of MMP-7 (mRNA): FIG. 12; for expression of MMP-10 (mRNA): FIG. 13; for expression of MMP-11 (mRNA): FIG. 14; for expression of MMP-13 (mRNA): FIG. 15; for expression of MMP-15 (mRNA): FIG. 16; for expression of MMP-17 (mRNA): FIG. 17; for expression of MMP-27 (mRNA): FIG. 18
Method: as §5, §6, §7, §8, §3, §9

recombinant MMP-10 = recombinant MMP-10 (Homo sapiens, UniProt P09238); assay: ES001 fluorogenic peptide assay with recombinant MMP-10 as positive control; type: biochemical; conditions: FIG. 2
Method: Metalloproteolytic or metalloprotease activity was measured in supernatants of cultures of normal human cholangiocytes and polycystic human cholangiocytes by an assay based on the cleavage of the ES001 fluorogenic synthetic peptide (R&D Systems Minneapolis, Minn., USA) that emits fluorescence proportional to metalloproteolytic activity. The substrate Mca-Pro-Leu-Gly-Leu-Dpa-Ala-Arg-NH2 [Mca: (7-Methoxycoumarin-4-yl)acetyl, Dpa: N-3-(2,4-Dinitrophenyl)-L-2,3-diaminopropionyl] […]
The basal metalloproteolytic activity of normal human cholangiocyte and polycystic human cholangiocytes cultures was determined by trypsinising the contents of 250 ml flasks and counting the number of cells in an inverted optical microscope using a Neubauer camera and a ½ dilution of the cell solution with trypan blue (Sigma). […] The fluorescence determination was kinetically measured in a Spectra MAX GeminiXS (Molecular Devices Sunnyvale, Calif., USA) spectrophotometer at excitation-emission wavelengths of 320-405 nm. The fluorescence intensity emitted by the culture medium was extracted from the metalloproteolytic activity values. The metalloproteolytic activity was calculated from the tangent to the curve of the fluorescence values using at least six different points over time for each type of cell and condition.

PCK rats = conditions: cited from earlier work

Sequence of recombinant MMP-10 (P09238 99-476, species assumed): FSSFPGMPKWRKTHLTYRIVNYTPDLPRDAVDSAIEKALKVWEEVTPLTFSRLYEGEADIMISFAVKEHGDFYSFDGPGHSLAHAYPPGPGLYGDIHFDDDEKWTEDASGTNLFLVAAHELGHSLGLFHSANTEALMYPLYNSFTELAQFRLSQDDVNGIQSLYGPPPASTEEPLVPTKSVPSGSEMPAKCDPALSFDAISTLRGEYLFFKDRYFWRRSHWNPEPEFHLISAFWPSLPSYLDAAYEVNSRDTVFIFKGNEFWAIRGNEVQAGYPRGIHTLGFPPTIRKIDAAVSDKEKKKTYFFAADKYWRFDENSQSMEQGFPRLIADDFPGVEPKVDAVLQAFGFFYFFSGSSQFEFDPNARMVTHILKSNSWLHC

Row | Molecule | metalloproteolytic activity in presence of stimulus [2] | metalloproteolytic activity in presence of stimulus [3] | expression of the other metalloproteinases 1, 8, 9, 14, 16, 18, 24 and 26 [4] | expression of MMP-2 (mRNA) [4] | expression of MMP-3 (mRNA) [4] | expression of MMP-7 (mRNA) [4] | expression of MMP-10 (mRNA) [4] | expression of MMP-11 (mRNA) [4] | expression of MMP-13 (mRNA) [4] | expression of MMP-15 (mRNA) [4] | expression of MMP-17 (mRNA) [4] | expression of MMP-27 (mRNA) [4] | expression of the other metalloproteinases 1, 8, 9, 14, 16, 18, 24 and 26 [5] | expression of MMP-2 (mRNA) [5] | expression of MMP-3 (mRNA) [5] | expression of MMP-7 (mRNA) [5] | expression of MMP-10 (mRNA) [5] | expression of MMP-11 (mRNA) [5] | expression of MMP-13 (mRNA) [5] | expression of MMP-15 (mRNA) [5] | further results
1 | O=C(C[C@H](CSc1ccccc1)C(=O)O)c1ccc(-c2ccc(Cl)cc2)cc1 [BAY-12-9566] |  |  |  |  |  |  |  |  |  |  |  |  |  |  |  |  |  |  |  |  | half-life in plasma [1]: 90 to 100 h
2 | C[C@]12CC[C@@H]3c4ccc(O)cc4CC[C@H]3[C@@H]1CC[C@@H]2O [17β-estradiol] | increase | increase | did not show changes | none of these modules induced changes | increased | None of the 3 molecules caused changes | increased | increased | increased | did not change | did not change | did not change | did not show changes | increased | unchanged | unchanged | none of the 3 molecules caused changes | increased | increased | not altered | expression of MMP-17 (mRNA) [5]: increased; expression of MMP-27 (mRNA) [5]: unchanged
3 | IL-6: cytokine interleukin 6, present in the cystic fluid | increase | increase | did not show changes | none of these modules induced changes | unchanged | None of the 3 molecules caused changes | unchanged | did not change | did not cause changes | did not change | did not change | did not change | did not show changes | increased | increased | increased | none of the 3 molecules caused changes | increased | did not cause changes | increased | expression of MMP-17 (mRNA) [5]: increased; expression of MMP-27 (mRNA) [5]: increased
4 | CNC(=O)[C@H](Cc1c[nH]c2ccccc12)NC(=O)[C@@H](CC(=O)NO)CC(C)C [GM6001] |  |  |  |  |  |  |  |  |  |  |  |  |  |  |  |  |  |  |  |  | metalloproteolytic activity ([2]; normal human cholangiocytes, presence of MMP inhibitor GM6001, p<0.001, FIG. 2): inhibited; metalloproteolytic activity ([3]; polycystic human cholangiocytes, presence of MMP inhibitor GM6001, p<0.001, FIG. 2): inhibited; metalloproteolytic activity of the assay with recombinant MMP-10 (recombinant MMP-10): inhibited
5 | C[C@@H](O)[C@@H]1NC(=O)[C@H](CCCCN)NC(=O)[C@@H](Cc2c[nH]c3ccccc23)NC(=O)[C@H](Cc2ccccc2)NC(=O)[C@@H](NC(=O)[C@H](N)Cc2ccccc2)CSSC[C@@H](C(=O)N[C@H](CO)[C@@H](C)O)NC1=O [octreotide] |  |  |  |  |  |  |  |  |  |  |  |  |  |  |  |  |  |  |  |  | liver cystogenesis (PCK rats): inhibited
6 | IL-8: cytokine interleukin 8, present in the cystic fluid | increase | increase | did not show changes | none of these modules induced changes | unchanged | None of the 3 molecules caused changes | increased | increased | increased | did not change | did not change | did not change | did not show changes | not changed | unchanged | unchanged | none of the 3 molecules caused changes | increased | did not change | not altered | expression of MMP-17 (mRNA) [5]: increased; expression of MMP-27 (mRNA) [5]: unchanged
